# Reference: ChEMBL document CHEMBL1152560, “Substituted 2-arylbenzothiazoles as kinase inhibitors: hit-to-lead optimization” (Bioorg Med Chem, 2009)
# Columns and labels:
# [1] = biological target: Epidermal growth factor receptor (Homo sapiens, UniProt P00533); experiment: Inhibition of wild type EGF-R by microplate scintillation counting
# [2] = biological target: Serine/threonine-protein kinase PLK3 (Homo sapiens) (UniProt Q9H4B4); experiment: Residual activity of PLK3 at 10 uM by microplate scintillation counting
# [3] = biological target: Ephrin type-A receptor 5 (Homo sapiens) (UniProt P54756); experiment: Residual activity of EPHA5 at 1 uM by microplate scintillation counting
# [4] = biological target: Serine/threonine-protein kinase 24 (Homo sapiens) (UniProt Q9Y6E0); experiment: Residual activity of MST3 at 1 uM by microplate scintillation counting
# [5] = biological target: Maternal embryonic leucine zipper kinase (Homo sapiens) (UniProt Q14680); experiment: Residual activity of MELK at 10 uM by microplate scintillation counting
# [6] = biological target: Serine/threonine-protein kinase Chk2 (Homo sapiens) (UniProt O96017); experiment: Residual activity of CHK2 at 0.1 uM by microplate scintillation counting
# [7] = biological target: T1, Activin receptor type-1 (Homo sapiens) (UniProt Q04771); experiment: Residual activity of ACV-R1 at 10 uM by microplate scintillation counting
# T1 sequence (whole entry): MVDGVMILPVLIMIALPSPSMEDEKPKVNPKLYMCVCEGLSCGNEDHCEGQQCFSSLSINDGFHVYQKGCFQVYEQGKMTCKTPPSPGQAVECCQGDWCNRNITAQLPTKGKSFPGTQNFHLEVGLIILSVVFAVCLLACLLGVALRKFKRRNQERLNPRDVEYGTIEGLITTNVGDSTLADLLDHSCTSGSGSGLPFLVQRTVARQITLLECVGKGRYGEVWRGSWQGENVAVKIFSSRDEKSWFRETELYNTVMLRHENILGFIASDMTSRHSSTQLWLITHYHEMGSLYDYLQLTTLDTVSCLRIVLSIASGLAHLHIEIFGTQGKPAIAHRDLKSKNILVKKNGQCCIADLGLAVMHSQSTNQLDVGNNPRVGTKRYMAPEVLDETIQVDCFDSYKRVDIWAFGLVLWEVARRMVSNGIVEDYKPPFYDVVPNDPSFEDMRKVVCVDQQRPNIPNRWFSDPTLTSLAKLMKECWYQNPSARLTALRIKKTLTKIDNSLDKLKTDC
# [8] = biological target: Mitogen-activated protein kinase kinase kinase kinase 4 (Homo sapiens) (UniProt O95819); experiment: Residual activity of MAP4K4 at 0.1 uM by microplate scintillation counting
# [9] = biological target: CDK8/Cyclin C (Homo sapiens) (UniProt P49336+P24863); experiment: Residual activity of CDK8/Cyclin C at 0.1 uM by microplate scintillation counting; assay type: protein-complex assay
# [10] = biological target: T2, Serine/threonine-protein kinase NLK (Homo sapiens) (UniProt Q9UBE8); experiment: Residual activity of NLK at 0.1 uM by microplate scintillation counting
# T2 sequence (whole entry): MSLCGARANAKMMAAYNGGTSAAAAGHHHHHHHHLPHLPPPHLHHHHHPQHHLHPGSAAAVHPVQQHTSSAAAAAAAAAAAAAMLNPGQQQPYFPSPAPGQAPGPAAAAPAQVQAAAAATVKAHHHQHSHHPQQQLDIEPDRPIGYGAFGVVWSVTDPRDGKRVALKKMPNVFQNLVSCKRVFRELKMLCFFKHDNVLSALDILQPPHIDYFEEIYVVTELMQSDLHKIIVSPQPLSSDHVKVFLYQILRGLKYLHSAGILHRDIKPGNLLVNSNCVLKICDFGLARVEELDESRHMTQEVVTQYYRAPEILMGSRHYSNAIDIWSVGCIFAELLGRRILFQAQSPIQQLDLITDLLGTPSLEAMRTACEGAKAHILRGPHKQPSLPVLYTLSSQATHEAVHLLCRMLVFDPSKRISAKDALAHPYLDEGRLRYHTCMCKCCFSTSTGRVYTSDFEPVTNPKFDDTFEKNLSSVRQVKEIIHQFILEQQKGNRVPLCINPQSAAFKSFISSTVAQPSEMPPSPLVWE
# [11] = biological target: T3, Serine/threonine-protein kinase BRSK1 (Homo sapiens) (UniProt Q8TDC3); experiment: Residual activity of BRSK1 at 10 uM by microplate scintillation counting
# T3 sequence (whole entry): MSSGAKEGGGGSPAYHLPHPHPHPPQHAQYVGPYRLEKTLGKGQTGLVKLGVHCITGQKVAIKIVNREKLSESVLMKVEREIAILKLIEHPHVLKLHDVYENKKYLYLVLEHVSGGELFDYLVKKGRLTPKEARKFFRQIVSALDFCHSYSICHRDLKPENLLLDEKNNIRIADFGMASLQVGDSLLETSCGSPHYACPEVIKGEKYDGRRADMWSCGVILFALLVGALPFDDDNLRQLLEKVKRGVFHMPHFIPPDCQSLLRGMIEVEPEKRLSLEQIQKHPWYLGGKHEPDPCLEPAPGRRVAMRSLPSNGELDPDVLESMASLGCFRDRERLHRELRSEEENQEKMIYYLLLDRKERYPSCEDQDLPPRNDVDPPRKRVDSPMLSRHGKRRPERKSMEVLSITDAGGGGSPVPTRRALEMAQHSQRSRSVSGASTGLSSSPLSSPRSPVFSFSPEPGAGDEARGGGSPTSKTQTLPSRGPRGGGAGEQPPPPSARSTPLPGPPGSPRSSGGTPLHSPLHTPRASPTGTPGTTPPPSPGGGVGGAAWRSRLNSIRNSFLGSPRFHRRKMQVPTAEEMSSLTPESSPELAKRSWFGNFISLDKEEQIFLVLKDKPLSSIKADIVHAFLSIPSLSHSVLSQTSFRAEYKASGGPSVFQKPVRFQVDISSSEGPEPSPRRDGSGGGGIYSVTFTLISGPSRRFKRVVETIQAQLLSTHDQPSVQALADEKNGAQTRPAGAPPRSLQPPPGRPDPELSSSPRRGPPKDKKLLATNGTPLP
# [12] = biological target: CDK3/cyclin E (Homo sapiens) (UniProt P24864+O96020+Q00526); experiment: Residual activity of CDK3/Cyclin E at 10 uM by microplate scintillation counting; assay type: protein-complex assay
# [13] = biological target: Tyrosine-protein kinase HCK (Homo sapiens) (UniProt P08631); experiment: Residual activity of HCK at 0.1 uM by microplate scintillation counting
# [14] = biological target: Fibroblast growth factor receptor 3 (Homo sapiens) (UniProt P22607); experiment: Residual activity of FGFR3 at 0.1 uM by microplate scintillation counting
# Chain of Fibroblast growth factor receptor 3 (Homo sapiens) (P22607 23-806 limits assumed): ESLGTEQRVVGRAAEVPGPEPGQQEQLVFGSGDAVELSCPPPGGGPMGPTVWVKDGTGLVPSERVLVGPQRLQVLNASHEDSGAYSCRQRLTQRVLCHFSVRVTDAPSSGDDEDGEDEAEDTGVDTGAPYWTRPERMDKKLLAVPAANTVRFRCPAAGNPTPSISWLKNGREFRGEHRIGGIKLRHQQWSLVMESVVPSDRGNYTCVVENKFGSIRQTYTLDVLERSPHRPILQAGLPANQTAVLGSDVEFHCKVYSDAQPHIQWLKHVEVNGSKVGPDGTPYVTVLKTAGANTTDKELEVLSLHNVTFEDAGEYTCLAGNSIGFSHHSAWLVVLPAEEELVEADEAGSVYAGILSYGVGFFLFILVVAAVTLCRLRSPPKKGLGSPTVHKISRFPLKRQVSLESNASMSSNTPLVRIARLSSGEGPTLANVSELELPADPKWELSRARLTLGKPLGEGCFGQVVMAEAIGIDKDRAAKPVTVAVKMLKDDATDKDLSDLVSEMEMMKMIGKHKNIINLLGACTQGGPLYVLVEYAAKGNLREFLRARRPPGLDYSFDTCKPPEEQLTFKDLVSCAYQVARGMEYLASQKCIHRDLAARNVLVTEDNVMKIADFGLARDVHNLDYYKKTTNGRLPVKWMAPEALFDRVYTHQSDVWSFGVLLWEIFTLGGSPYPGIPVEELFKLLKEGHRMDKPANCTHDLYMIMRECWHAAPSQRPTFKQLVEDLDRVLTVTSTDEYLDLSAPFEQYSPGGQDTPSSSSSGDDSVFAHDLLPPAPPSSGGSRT
# Chain of Serine/threonine-protein kinase 24 (Homo sapiens) (Q9Y6E0 whole entry, looked up): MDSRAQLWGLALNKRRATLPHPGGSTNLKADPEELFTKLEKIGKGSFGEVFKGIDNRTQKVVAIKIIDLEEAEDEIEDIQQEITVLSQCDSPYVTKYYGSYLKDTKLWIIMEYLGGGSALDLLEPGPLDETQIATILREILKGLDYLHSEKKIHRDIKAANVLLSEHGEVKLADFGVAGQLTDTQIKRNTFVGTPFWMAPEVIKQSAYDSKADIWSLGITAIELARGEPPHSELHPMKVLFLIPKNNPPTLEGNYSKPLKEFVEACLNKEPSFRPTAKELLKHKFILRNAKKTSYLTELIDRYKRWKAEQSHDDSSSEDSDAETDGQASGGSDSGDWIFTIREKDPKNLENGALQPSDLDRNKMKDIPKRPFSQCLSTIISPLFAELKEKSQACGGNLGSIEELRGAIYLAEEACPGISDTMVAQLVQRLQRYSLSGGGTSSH
# Chain of Tyrosine-protein kinase HCK (Homo sapiens) (P08631 2-526 limits assumed): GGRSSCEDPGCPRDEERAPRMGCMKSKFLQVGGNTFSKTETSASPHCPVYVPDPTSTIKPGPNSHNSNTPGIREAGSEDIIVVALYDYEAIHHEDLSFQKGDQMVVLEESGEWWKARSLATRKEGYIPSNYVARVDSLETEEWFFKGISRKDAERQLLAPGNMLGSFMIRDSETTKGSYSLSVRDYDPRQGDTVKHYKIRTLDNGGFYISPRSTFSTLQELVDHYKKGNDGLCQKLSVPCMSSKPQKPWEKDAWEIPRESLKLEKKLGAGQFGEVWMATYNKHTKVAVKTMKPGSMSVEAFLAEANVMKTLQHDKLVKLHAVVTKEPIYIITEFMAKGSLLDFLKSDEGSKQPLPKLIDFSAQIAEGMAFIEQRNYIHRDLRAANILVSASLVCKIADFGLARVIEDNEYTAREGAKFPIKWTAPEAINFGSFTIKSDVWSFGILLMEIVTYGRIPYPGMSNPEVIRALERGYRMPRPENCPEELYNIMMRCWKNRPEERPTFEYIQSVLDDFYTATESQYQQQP
# Chain of Maternal embryonic leucine zipper kinase (Homo sapiens) (Q14680 whole entry, looked up): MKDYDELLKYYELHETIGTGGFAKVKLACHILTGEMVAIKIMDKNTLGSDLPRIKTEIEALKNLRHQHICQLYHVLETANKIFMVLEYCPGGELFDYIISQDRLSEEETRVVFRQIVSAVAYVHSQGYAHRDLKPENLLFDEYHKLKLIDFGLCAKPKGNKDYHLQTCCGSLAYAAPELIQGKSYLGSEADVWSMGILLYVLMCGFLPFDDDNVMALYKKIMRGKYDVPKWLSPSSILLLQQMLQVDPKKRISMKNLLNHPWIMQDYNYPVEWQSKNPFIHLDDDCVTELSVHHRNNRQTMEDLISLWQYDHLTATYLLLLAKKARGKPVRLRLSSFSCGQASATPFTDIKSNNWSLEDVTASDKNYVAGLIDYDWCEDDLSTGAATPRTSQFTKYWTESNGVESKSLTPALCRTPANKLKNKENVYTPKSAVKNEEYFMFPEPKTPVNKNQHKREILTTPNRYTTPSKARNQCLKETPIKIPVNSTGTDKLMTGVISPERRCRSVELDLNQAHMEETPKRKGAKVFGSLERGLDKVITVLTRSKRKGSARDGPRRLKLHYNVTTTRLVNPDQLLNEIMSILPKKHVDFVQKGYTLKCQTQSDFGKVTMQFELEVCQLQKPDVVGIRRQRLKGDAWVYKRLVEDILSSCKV
# Chain of Serine/threonine-protein kinase PLK3 (Homo sapiens) (Q9H4B4 whole entry, looked up): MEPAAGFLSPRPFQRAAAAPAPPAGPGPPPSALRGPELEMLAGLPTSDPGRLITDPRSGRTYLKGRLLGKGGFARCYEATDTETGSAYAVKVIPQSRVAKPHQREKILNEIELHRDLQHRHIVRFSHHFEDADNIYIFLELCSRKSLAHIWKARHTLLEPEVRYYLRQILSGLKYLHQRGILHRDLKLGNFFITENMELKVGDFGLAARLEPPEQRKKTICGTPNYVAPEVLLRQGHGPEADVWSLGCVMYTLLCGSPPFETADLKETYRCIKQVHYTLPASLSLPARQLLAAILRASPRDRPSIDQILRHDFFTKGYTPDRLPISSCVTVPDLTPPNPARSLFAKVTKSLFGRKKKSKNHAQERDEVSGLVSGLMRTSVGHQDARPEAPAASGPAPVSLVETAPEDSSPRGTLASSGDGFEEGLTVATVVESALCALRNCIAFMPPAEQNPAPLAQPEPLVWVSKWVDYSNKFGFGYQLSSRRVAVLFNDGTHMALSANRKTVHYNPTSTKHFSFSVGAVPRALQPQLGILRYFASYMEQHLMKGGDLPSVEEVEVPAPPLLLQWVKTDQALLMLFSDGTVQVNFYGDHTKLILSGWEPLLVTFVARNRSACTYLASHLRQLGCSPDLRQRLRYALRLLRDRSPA
# Chain of CDK3/cyclin E (Homo sapiens) (O96020 whole entry, looked up): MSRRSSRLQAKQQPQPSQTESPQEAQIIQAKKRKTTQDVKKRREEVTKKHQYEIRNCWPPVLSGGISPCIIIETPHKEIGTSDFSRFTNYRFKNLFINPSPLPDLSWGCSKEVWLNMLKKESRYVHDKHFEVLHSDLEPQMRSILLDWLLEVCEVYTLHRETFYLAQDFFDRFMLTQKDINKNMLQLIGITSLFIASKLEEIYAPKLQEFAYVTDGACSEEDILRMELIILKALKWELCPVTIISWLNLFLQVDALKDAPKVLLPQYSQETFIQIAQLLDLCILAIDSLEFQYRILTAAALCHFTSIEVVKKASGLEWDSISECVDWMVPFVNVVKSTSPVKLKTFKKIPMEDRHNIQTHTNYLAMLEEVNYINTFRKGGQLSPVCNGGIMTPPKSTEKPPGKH
# Chain of CDK3/cyclin E (Homo sapiens) (P24864 whole entry, looked up): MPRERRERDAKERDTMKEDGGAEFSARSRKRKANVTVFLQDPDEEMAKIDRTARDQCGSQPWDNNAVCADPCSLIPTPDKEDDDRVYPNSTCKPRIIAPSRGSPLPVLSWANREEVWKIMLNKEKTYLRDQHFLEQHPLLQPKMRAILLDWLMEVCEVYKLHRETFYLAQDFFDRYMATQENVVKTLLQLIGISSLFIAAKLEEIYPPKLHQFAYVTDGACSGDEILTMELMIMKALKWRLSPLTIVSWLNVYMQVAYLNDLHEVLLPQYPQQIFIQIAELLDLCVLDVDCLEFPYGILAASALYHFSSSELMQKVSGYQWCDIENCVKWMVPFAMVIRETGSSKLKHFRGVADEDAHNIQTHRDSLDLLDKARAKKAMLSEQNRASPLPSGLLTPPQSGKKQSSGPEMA
# Chain of CDK3/cyclin E (Homo sapiens) (Q00526 whole entry, looked up): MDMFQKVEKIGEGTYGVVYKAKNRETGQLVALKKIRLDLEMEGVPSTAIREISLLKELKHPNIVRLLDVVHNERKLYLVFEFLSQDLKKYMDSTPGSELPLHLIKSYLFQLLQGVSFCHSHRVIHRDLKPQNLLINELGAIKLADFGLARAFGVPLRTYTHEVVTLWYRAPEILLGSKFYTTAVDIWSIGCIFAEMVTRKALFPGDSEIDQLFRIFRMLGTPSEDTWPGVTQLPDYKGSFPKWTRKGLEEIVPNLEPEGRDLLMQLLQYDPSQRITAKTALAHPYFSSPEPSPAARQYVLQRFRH
# Chain of Serine/threonine-protein kinase Chk2 (Homo sapiens) (O96017 whole entry): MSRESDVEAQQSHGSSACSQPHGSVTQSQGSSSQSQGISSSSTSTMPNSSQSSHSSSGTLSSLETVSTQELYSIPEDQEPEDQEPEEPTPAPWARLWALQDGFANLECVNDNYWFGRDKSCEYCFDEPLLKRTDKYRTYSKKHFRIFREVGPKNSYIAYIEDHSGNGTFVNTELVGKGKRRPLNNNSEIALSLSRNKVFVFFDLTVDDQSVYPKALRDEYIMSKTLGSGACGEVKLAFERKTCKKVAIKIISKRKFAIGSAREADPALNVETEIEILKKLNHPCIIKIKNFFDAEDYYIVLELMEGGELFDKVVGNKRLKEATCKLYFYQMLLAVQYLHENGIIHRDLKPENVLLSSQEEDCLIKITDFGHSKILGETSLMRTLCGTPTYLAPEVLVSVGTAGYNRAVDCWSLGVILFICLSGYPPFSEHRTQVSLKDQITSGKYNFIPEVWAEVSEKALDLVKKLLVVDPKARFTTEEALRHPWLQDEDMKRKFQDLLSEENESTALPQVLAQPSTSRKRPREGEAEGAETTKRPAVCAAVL
IC50 [1],residual activity [2],residual activity [3],residual activity [4],residual activity [5],residual activity [6],residual activity [7],residual activity [8],residual activity [9],residual activity [10],residual activity [11],residual activity [12],residual activity [13],residual activity [14],Compound
> 10 µM,223%,119%,113%,85%,88%,81%,86%,94%,90%,99%,113%,97%,104%,COc1cc2c(Oc3ccc(-c4nc5ccccc5s4)cc3)ncnc2cc1OCCCN1CCCC1
> 10 µM,2%,103%,118%,98%,91%,87%,85%,87%,94%,100%,130%,96%,95%,COc1cc2c(Oc3ccc(-c4nc5ccccc5s4)cc3)ncnc2cc1OCCCN1CCN(C)CC1
> 10 µM,257%,95%,122%,77%,92%,96%,83%,79%,91%,103%,119%,115%,100%,COc1cc2c(Oc3ccc(-c4nc5ccccc5s4)cc3F)ncnc2cc1OCCCN1CCN(C)CC1
